# Read-outs that look alike come from different tables or passages of the source.
# How the values were obtained:
# Human AT2R = biological target: T1, Human AT2R (Homo sapiens, UniProt P50052); experiment: Antagonistic activity assay on human AT2R ligand binding (Tag-lite HTRF, Tb-labeled-AT2R cells); conditions: AT2 ligand binding, red agonist fluorescent ligand
# T1 construct: Terbium (Tb) donor label on the receptor; From my own knowledge, the Tag-lite format usually uses an N-terminal SNAP-tag fusion labelled with Lumi4-Tb; expressed in transfected cells
# T1 sequence (P50052 1-363): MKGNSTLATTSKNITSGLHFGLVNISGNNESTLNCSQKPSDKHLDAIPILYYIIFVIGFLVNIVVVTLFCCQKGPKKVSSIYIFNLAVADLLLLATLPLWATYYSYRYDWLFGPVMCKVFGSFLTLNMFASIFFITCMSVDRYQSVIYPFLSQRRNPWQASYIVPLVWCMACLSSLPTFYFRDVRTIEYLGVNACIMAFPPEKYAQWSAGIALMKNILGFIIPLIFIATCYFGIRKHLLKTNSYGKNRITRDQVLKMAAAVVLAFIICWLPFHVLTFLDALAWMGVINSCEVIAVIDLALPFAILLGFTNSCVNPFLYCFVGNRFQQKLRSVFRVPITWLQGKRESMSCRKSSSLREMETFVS
# Procedure: Antagonistic Activity Assay of the Compound of the Present Disclosure on Human AT2R Ligand Binding
# According to standard methods, all compounds were dissolved in dimethyl sulfoxide and prepared as 10 mM stock solutions.
# (3) Each of the diluted compound in step (2) was transferred to a working plate (3657, Corning) at 160 nL/well, at 200 g, at room temperature for 1 minute;
# (4) 40 μl 1×TLB was added to the above working plate, and it was centrifuged at 200 g (centrifugal force) at room temperature for 1 minute, shook on a shaker for 15 minutes to mix well, and centrifuged at 200 g (working concentration of the compound was 4×) at room temperature for 1 minute for later use;
# (6) 5 mL 1×TLB was taken in a 15 mL centrifuge tube;
# (7) a Tb-labeled-AT2R cells were frozen and thawed in a 37° C. water bath until the ice was completely melted (1-2 minutes);
# (8) The frozen and thawed cells were rapidly transferred to the 1×TLB in step (6), and the resulting solution was mixed gently, and then centrifuged at 1200 g at room temperature for 5 minutes;
# After being mixed well, the resulting mixture was placed at room temperature for late use;
# (11) The reaction plate was centrifuged at 200 g at room temperature for 1 minute, and stood for 1 hour at room temperature of 25° C., and then it was centrifuged at 200 g at room temperature for 1 minute. The data was collected using Envision HTRF microplate reader, and IC50 was calculated using a nonlinear fitting formula.
# [1] = Metabolic stability in rat liver microsomes; assay type: in vitro ADME; conditions: rat liver microsomes 0.5 mg/mL, 1 μM compound, NADPH 1 mM; read-out: Half-life/(T1/2, min)
# Procedure: Test Example 2. Study on the Metabolic Stability of the Compound of the Present Disclosure in Rat Liver Microsomes
# The purpose of this experiment is to study the metabolic stability of the compounds of the present disclosure in rat liver microsomes.
# The compounds were incubated with rat liver microsomes and coenzyme NADPH was added to initiate the reaction. At 0, 5, 15, 30 and 60 minutes, 20 μL of incubation solution was taken out and transferred to 200 μL of acetonitrile containing internal standard to stop the reaction. After protein precipitation, the resulting mixture was centrifuged at 3,700 rpm for 10 minutes, and the supernatant was taken. The supernatant was diluted 1:1 with water and analyzed by LC-MS/MS method. According to the elimination half-life of the test compound in the incubation system, the in vitro intrinsic clearance rate was calculated. Midazolam was used as the internal reference compound and all incubations were performed in duplicate in parallel.
# The peak area ratio analyte/internal standard (Aanalyte/AIS) is obtained by the instrument, and the remaining percentage (% Control) is calculated from the ratio Aanalyte/AIS in the non-zero time point sample to the zero time point sample. Ln (% Control) against incubation time is plotted and a linear fit was performed.
# [2] = Pharmacokinetic study in SD rats (intravenous injection and intragastric administration); assay type: in vivo, Sprague Dawley (SD) rats; conditions: for bioavailability: Oral (10 mg/kg) vs Injection (1 mg/kg), read-out: Bioavailability F(%); for half-life: read-out: Half-life T1/2 (converted); for AUC(0-inf): read-out: area under curve AUC0-∞; for MRT: read-out: residence time MRT
# Procedure: Test Example 3. Oral Pharmacokinetic Studies of the Compounds of the Present Disclosure in SD Rats
# SD rats were used as the experimental animal. The rats were intravenously injected or intragastrically administered with the compounds of the present disclosure, and the drug concentrations in plasma at different times were tested by LC/MS/MS methods, so as to research the pharmacokinetic characteristics of compounds of present disclosure in rats.
# Forty-eight healthy adult Sprague Dawley (SD) male rats were purchased from Weitong Lihua Laboratory Animal Technology Co., Ltd., production license number: 11400700271077.
# 48 healthy adult male SD rats were fasted overnight and administered via tail vein injection (at a dosage of 1 mg/kg) and intragastrically administered (at a dosage of 10 mg/kg), respectively. The rats were fed 4 h after the administration.
# About 0.2 mL of blood was collected from the jugular vein before administering and at 0.083 hours, 0.25 hours, 0.5 hours, 1 hour, 2 hours, 4 hours, 8 hours, 12 hours, and 24 hours after administering, and heparin sodium was used for anticoagulation. Blood samples were collected and placed on ice, and plasma was separated by centrifugation (centrifugation conditions: 1500 g, 10 min). The collected plasma was stored at −40° C.-20° C. before analysis.
# 10 μL of plasma sample was taken and 400 μL of acetonitrile (containing internal standard working solution, comprising 5 ng/mL verapamil and 50 ng/mL glibenclamide) was added. The resulting mixture was vortexed for 10 minutes, and centrifuged at 3700 rpm for 10 minutes. 70 μL of the supernatant was taken, and […] of water was added. The resulting mixture was vortexed for 10 minutes, and 2 μL of the mixture was transferred to the LC-MS/MS for sample analysis.
# [3] = male, Sprague-Dawley, rat, plasma
# [4] = male, Sprague-Dawley, rat, plasma, Oral (10 mg/kg)
# [5] = male, Sprague-Dawley, rat, plasma, iv, Injection (1 mg/kg), tail vein
smiles,measurement,setting,value
"COc1ccc(COc2c(OC)ccc3c2C[C@@H](C(=O)O)N(c2nc4ccc(F)cc4o2)C3)cc1 [Example 30, (S)-2-(6-fluorobenzo[d]oxazol-2-yl)-6-methoxy-5-((4-methoxybenzyl)oxy)-1,2,3,4-tetrahydroisoquinoline-3-carboxylic acid]",IC50,Human AT2R,4 nM
same,half-life at 1 µM,[1],251 min
same,Half-life T1/2,"[2]; Injection (1 mg/kg), tail vein",2.4 ± 0.8 h
same,bioavailability,[2]; [3],22.1%
same,half-life,[2]; [4],3.3 ± 0.5 h
same,AUC(0-inf),[2]; [4],7130 ± 1630 ng·h/mL
same,MRT,[2]; [4],3.6 ± 0.4 h
same,AUC(0-inf),[2]; [5],3230 ± 659 ng·h/mL
same,MRT,[2]; [5],1.2 ± 0.4 h
"COc1ccc(COc2c(OC)ccc3c2C[C@@H](C(=O)O)N(c2nc4ccc(F)cc4o2)C3)nc1 [Example 36, (S)-2-(6-fluorobenzo[d]oxazol-2-yl)-6-methoxy-5-((5-methoxypyridin-2-yl)methoxy)-1,2,3,4-tetrahydroisoquinoline-3-carboxylic acid]",IC50,Human AT2R,10 nM
same,half-life at 1 µM,[1],768 min
same,bioavailability,[2]; [3],53.7%
same,half-life,[2]; [4],3.8 ± 1 h
same,AUC(0-inf),[2]; [4],24700 ± 9400 ng·h/mL
same,Cmax,"[2]; male, Sprague-Dawley, rat, plasma, Oral (10 mg/kg), read-out: blood concentration Cmax",4740 ± 662 ng/mL
same,MRT,[2]; [4],5.4 ± 1.3 h
same,half-life,[2]; [5],4.8 ± 2.6 h
same,AUC(0-inf),[2]; [5],4600 ± 240 ng·h/mL
same,MRT,[2]; [5],2.3 ± 0.6 h

# Reference: patent US11384097B2, “Tetrahydroisoquinoline derivative, preparation method therefor and use thereof” (ZHEJIANG HISUN PHARMACEUTICAL CO., LTD., priority 2018, dated 2022)
